This note sets out measurements from patent US11427558B1, “Indazoles and azaindazoles as LRRK2 inhibitors” (ESCAPE Bio, Inc., priority 2019, dated 2022).

The target in assay [1] is Recombinant wild type LRRK2 protein (Homo sapiens (Human), UniProt Q5S007). Put plainly: LRRK2 kinase activity, LanthaScreen TR-FRET assay (wild type). It counts as biochemical. The note with it: LRRKtide 400 nM, 25 μM ATP, 60 min; read-out: LRRK2 WT IC50. The method, boiled down:
(§1)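 Recombinant human wild-type or G2019S LRRK2 phosphorylated fluorescein-labelled LRRKtide (ERM-based) with ATP and serially diluted compound for 60 min at room temperature.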

Assay [2] has as its target Recombinant G2019S-LRRK2 protein (Homo sapiens (Human), UniProt Q5S007, G2019S). Description: LRRK2 kinase activity, LanthaScreen TR-FRET assay (G2019S). Type of assay: biochemical. The note with it: LRRKtide 400 nM, 25 μM ATP, 60 min. The method, boiled down: as §1
On the technique in general: In TR-FRET formats the signal depends on donor and acceptor labels being close together.

Sequence of Recombinant G2019S-LRRK2 protein (Q5S007 whole entry G2019S): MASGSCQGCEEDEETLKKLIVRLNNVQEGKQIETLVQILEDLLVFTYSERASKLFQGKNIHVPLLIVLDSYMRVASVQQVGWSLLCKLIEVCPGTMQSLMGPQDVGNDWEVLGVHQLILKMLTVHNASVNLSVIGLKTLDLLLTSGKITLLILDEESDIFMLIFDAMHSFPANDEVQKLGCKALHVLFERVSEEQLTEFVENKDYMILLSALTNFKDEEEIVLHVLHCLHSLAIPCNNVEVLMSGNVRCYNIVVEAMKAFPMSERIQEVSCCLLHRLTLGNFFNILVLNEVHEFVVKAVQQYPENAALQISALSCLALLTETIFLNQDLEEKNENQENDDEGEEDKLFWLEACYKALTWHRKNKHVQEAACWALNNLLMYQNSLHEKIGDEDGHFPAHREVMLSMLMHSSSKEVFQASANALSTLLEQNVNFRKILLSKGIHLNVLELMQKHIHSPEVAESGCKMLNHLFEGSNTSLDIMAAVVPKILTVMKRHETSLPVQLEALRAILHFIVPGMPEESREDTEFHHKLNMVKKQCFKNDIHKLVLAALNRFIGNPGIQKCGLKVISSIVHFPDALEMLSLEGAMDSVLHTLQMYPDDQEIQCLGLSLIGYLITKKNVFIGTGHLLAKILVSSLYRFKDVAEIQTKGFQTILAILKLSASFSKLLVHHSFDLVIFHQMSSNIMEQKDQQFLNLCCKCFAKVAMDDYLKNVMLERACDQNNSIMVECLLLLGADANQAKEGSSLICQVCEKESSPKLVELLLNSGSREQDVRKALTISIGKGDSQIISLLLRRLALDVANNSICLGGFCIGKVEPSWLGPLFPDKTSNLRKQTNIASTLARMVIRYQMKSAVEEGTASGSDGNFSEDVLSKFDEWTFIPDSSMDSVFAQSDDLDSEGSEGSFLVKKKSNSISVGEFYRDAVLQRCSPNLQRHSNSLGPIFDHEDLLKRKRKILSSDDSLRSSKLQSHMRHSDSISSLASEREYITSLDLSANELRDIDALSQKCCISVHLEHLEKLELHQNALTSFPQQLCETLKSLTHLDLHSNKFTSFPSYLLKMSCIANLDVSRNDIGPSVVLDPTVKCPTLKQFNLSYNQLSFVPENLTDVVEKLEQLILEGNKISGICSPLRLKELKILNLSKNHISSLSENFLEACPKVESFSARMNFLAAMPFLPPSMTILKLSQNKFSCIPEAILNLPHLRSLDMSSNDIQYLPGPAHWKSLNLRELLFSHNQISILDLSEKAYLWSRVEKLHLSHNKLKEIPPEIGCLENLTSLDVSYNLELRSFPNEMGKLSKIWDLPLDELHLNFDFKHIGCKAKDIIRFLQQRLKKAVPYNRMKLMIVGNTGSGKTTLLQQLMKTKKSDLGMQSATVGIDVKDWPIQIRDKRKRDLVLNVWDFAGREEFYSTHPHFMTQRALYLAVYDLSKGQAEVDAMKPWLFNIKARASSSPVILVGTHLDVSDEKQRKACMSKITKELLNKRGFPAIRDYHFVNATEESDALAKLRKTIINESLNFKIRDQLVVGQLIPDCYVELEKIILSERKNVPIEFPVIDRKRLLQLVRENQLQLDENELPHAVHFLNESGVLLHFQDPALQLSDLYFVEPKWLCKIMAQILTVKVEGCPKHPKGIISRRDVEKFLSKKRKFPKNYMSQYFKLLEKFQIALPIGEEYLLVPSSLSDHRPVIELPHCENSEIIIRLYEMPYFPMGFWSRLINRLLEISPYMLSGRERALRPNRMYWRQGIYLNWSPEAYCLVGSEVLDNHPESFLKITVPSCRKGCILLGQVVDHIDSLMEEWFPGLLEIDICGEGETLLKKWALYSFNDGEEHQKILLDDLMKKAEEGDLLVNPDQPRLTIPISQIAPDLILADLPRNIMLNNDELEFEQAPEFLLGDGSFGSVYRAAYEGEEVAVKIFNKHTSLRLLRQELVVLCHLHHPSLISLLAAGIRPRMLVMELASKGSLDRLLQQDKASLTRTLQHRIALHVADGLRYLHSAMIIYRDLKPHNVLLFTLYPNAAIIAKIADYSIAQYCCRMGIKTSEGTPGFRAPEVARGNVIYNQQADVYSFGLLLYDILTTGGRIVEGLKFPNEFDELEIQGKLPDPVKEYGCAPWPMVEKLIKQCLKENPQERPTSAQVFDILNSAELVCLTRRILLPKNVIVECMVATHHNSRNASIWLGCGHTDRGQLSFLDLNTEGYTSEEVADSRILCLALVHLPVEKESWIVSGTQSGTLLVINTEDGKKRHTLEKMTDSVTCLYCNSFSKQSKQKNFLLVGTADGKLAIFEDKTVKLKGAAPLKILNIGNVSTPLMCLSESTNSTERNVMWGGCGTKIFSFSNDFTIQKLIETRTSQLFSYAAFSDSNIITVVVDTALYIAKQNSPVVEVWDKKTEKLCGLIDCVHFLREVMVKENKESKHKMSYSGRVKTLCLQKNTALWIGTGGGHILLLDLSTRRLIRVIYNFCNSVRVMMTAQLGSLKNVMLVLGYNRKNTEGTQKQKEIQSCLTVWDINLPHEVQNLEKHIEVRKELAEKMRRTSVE
Sequence of Recombinant wild type LRRK2 protein (Q5S007 whole entry): as the sequence (Q5S007 whole entry G2019S) above, with S2019G counted along it

Turning to `Cn1nc(C(=O)Nc2ccc3[nH]nc(-c4ccoc4)c3c2)cc1C#N` [Example 97, 5-Cyano-N-(3-(furan-3-yl)-1H-indazol-5-yl)-1-methyl-1H-pyrazole-3-carboxamide], the IC50 in assay [1] was 100 to 1000 nM; in assay [2] it was < 100 nM.
The like results for `COc1cc(C(=O)Nc2ccc3[nH]nc(-c4cnco4)c3c2)ncc1C#N` [Example 249, 5-Cyano-4-methoxy-N-(3-(oxazol-5-yl)-1H-indazol-5-yl)picolinamide] were, in that order, 100 to 1000 nM and < 100 nM.
The like results for `Cc1c(C#N)nn(C)c1C(=O)Nc1ccc2[nH]nc(-c3ccoc3)c2c1` [Example 92, 3-Cyano-N-(3-(furan-3-yl)-1H-indazol-5-yl)-1,4-dimethyl-1H-pyrazole-5-carboxamide] were, in that order, 100 to 1000 nM and < 100 nM.
The like results for `CCOc1cc(-c2n[nH]c3ccc(NC(=O)c4ncc(C#N)c(C)c4C)cc23)ccn1` [Example 205, 5-Cyano-N-(3-(2-ethoxypyridin-4-yl)-1H-indazol-5-yl)-3,4-dimethylpicolinamide] were, in that order, < 100 nM and < 100 nM.
Turning to `Cc1ccc(C#N)c(F)c1C(=O)Nc1ccc2[nH]nc(-c3cnoc3)c2c1` [Example 236, 3-Cyano-2-fluoro-N-(3-(isoxazol-4-yl)-1H-indazol-5-yl)-6-methylbenzamide], the IC50 in assay [1] and in assay [2] was < 100 nM throughout.
Take `C=Cc1cc(C#N)cnc1C(=O)Nc1ccc2[nH]nc(-c3ccoc3)c2c1` [Example 84, 5-Cyano-N-(3-(furan-3-yl)-1H-indazol-5-yl)-3-vinylpicolinamide]: the IC50 in assay [1] was 100 to 1000 nM; in assay [2] it was < 100 nM.
The like results for `N#Cc1ccc(C(=O)Nc2ccc3[nH]nc(-c4ccoc4)c3c2)nc1` [Example 16, 5-Cyano-N-(3-(furan-3-yl)-1H-indazol-5-yl)picolinamide] were, in that order, 100 to 1000 nM and < 100 nM.
The like results for `N#Cc1ccc(C(=O)Nc2ccc3[nH]nc(-c4ccoc4)c3c2)c(C(F)(F)F)c1` [Example 6, 4-Cyano-N-(3-(furan-3-yl)-1H-indazol-5-yl)-2-(trifluoromethyl)benzamide] were, in that order, < 100 nM and < 100 nM.
The like results for `Cc1ccc(C#N)nc1C(=O)Nc1ccc2[nH]nc(-c3ccoc3)c2c1` [Example 148, 6-Cyano-N-(3-(furan-3-yl)-1H-indazol-5-yl)-3-methylpicolinamide] were, in that order, < 100 nM and < 100 nM.
In the case of `CCc1cc(C#N)cnc1C(=O)Nc1ccc2[nH]nc(-c3ccoc3)c2c1` [Example 83, 5-Cyano-3-ethyl-N-(3-(furan-3-yl)-1H-indazol-5-yl)picolinamide], the concentration for half-maximal inhibition (IC50) in assay [1] was 100 to 1000 nM; in assay [2], < 100 nM.
`Cc1cc(C#N)cnc1C(=O)Nc1ccc2[nH]nc(-c3ccnnc3)c2c1` [Example 272, 5-Cyano-3-methyl-N-(3-(pyridazin-4-yl)-1H-indazol-5-yl)picolinamide]: the 50% inhibitory concentration (IC50) in assay [1] is 100 to 1000 nM; in assay [2] it was < 100 nM.
Regarding `Cc1cc(C#N)cnc1C(=O)Nc1ccc2[nH]nc(I)c2c1` [Example 87, 5-cyano-N-(3-iodo-1H-indazol-5-yl)-3-methylpicolinamide], the IC50 in assay [1] was 100 to 1000 nM; in assay [2] it was < 100 nM.
`CSc1n[nH]c2ccc(NC(=O)c3nc(Cl)c(C#N)c(C)c3C)cc12` [Example 317, 6-Chloro-5-cyano-3,4-dimethyl-N-(3-(methylthio)-1H-indazol-5-yl)picolinamide]: the IC50 in assay [1] and in assay [2] was < 100 nM throughout.
As to `Cc1cc(-c2n[nH]c3ccc(NC(=O)c4ncc(C#N)cc4C)cc23)cnn1` [Example 273, 5-Cyano-3-methyl-N-(3-(6-methylpyridazin-4-yl)-1H-indazol-5-yl)picolinamide], the 50% inhibitory concentration (IC50) in assay [1] was 100 to 1000 nM; in assay [2], < 100 nM.
The like results for `Cc1nc(C(=O)Nc2ccc3[nH]nc(C)c3c2)c(Cl)c(C)c1C#N` [Example 275, 3-Chloro-5-cyano-4,6-dimethyl-N-(3-methyl-1H-indazol-5-yl)picolinamide] were, in that order, 100 to 1000 nM and < 100 nM.
The like results for `Cc1c(C#N)cnc(C(=O)Nc2ccc3[nH]nc(C=C4COC4)c3c2)c1C` [Example 263, 5-Cyano-3,4-dimethyl-N-(3-(oxetan-3-ylidenemethyl)-1H-indazol-5-yl)picolinamide] were, in that order, 1000 to 10000 nM and 100 to 1000 nM.
For `CCc1n[nH]c2ccc(NC(=O)c3nc(Cl)c(C#N)c(C)c3C)cc12` [Example 271, 6-Chloro-5-cyano-N-(3-ethyl-1H-indazol-5-yl)-3,4-dimethylpicolinamide], the IC50 in assay [1] and in assay [2] was < 100 nM throughout.
As to `CCc1c(C#N)ccnc1C(=O)Nc1ccc2[nH]nc(-c3ccoc3)c2c1` [Example 149, 4-Cyano-3-ethyl-N-(3-(furan-3-yl)-1H-indazol-5-yl)picolinamide], the values for the IC50 in assay [1] and in assay [2] were 100 to 1000 nM and < 100 nM, respectively.
The like results for `Cc1cc(-c2n[nH]c3ccc(NC(=O)c4ncc(C#N)c(C)c4C)cc23)cc(C)n1` [Example 191, 5-Cyano-N-(3-(2,6-dimethylpyridin-4-yl)-1H-indazol-5-yl)-3,4-dimethylpicolinamide] were, in that order, < 100 nM and < 100 nM.
The like results for `Cc1cc(C#N)ccc1C(=O)Nc1ccc2[nH]nc(-c3ccoc3)c2c1` [Example 18, 4-Cyano-N-(3-(furan-3-yl)-1H-indazol-5-yl)-2-methylbenzamide] were, in that order, < 100 nM and < 100 nM.
The like results for `Cc1c(C(=O)Nc2ccc3[nH]nc(Br)c3c2)nc(Cl)c(C#N)c1C` [Example 324, N-(3-Bromo-1H-indazol-5-yl)-6-chloro-5-cyano-3,4-dimethylpicolinamide] were, in that order, < 100 nM and < 100 nM.
With `N#Cc1cc(F)c(C(=O)Nc2ccc3[nH]nc(-c4ccoc4)c3c2)c(F)c1` [Example 7, 4-Cyano-2,6-difluoro-N-(3-(furan-3-yl)-1H-indazol-5-yl)benzamide], the IC50 in assay [1] and in assay [2] was < 100 nM throughout.
As for `N#Cc1cccc(C(=O)Nc2ccc3[nH]nc(-c4cnoc4)c3c2)c1Cl` [Example 220, 2-Chloro-3-cyano-N-(3-(isoxazol-4-yl)-1H-indazol-5-yl)benzamide], the IC50 in assay [1] and in assay [2] was < 100 nM each time.
`Cc1c(C#N)cnc(C(=O)Nc2ccc3[nH]nc(-c4ncco4)c3c2)c1C` [Example 198, 5-Cyano-3,4-dimethyl-N-(3-(oxazol-2-yl)-1H-indazol-5-yl)picolinamide]: the IC50 is 100 to 1000 nM in assay [1] and < 100 nM in assay [2].
The like results for `Cc1c(C(=O)Nc2ccc3[nH]nc(-c4ccoc4)c3c2)c(C#N)nn1C` [Example 90, 3-Cyano-N-(3-(furan-3-yl)-1H-indazol-5-yl)-1,5-dimethyl-1H-pyrazole-4-carboxamide] were, in that order, < 100 nM and < 100 nM.
In the case of `Cc1cc(C#N)cnc1C(=O)Nc1ccc2[nH]nc(C3COC3)c2c1` [Example 256, 5-Cyano-3-methyl-N-(3-(oxetan-3-yl)-1H-indazol-5-yl)picolinamide], the IC50 in assay [1] and in assay [2] was 1000 to 10000 nM each time.
With `Cc1cc(C#N)cnc1C(=O)Nc1cc(C)c2[nH]nc(-c3ccoc3)c2c1` [Example 80, 5-Cyano-N-(3-(furan-3-yl)-7-methyl-1H-indazol-5-yl)-3-methylpicolinamide], the half-inhibitory concentration (IC50) lay in the range of 1000 to 10000 nM in assay [1] and 100 to 1000 nM in assay [2].
`Cc1ccc(-c2n[nH]c3ccc(NC(=O)c4ncc(C#N)cc4C)cc23)cc1F` [Example 63, 5-Cyano-N-(3-(3-fluoro-4-methylphenyl)-1H-indazol-5-yl)-3-methylpicolinamide]: the IC50 in assay [1] is 100 to 1000 nM; in assay [2], < 100 nM.
On to `Cc1c(C#N)cnc(C(=O)Nc2ccc3[nH]nc(C(F)F)c3c2)c1C` [Example 292, 5-Cyano-N-(3-(difluoromethyl)-1H-indazol-5-yl)-3,4-dimethylpicolinamide], for which the half-inhibitory concentration (IC50) was in the range of 1000 to 10000 nM in assay [1] and 100 to 1000 nM in assay [2].
The like results for `Cc1cc(C#N)cnc1C(=O)Nc1ccc2[nH]nc(-c3ccc(CN4CCOCC4)s3)c2c1` [Example 102, 5-Cyano-3-methyl-N-(3-(5-(morpholinomethyl)thiophen-2-yl)-1H-indazol-5-yl)picolinamide] were, in that order, 100 to 1000 nM and < 100 nM.
The like results for `Cc1cc(C#N)c(C(F)(F)F)nc1C(=O)Nc1ccc2[nH]nc(-c3cnco3)c2c1` [Example 288, 5-Cyano-3-methyl-N-(3-(oxazol-5-yl)-1H-indazol-5-yl)-6-(trifluoromethyl)picolinamide] were, in that order, < 100 nM and < 100 nM.
The like results for `Cc1ccc(C#N)c(F)c1C(=O)Nc1ccc2[nH]nc(-c3cnn(C(F)F)c3)c2c1` [Example 177, 3-Cyano-N-(3-(1-(difluoromethyl)-1H-pyrazol-4-yl)-1H-indazol-5-yl)-2-fluoro-6-methylbenzamide] were, in that order, < 100 nM and < 100 nM.
As for `Cc1c(C(=O)Nc2ccc3[nH]nc(-c4cnco4)c3c2)cc(C#N)c(=O)n1C` [Example 213, 5-Cyano-1,2-dimethyl-N-(3-(oxazol-5-yl)-1H-indazol-5-yl)-6-oxo-1,6-dihydropyridine-3-carboxamide], the IC50 in assay [1] and in assay [2] was < 100 nM in each case.
For `Cc1c(C(=O)Nc2ccc3[nH]nc(-c4cnn(C(F)F)c4)c3c2)nc(Cl)c(C#N)c1C` [Example 175, 6-Chloro-5-cyano-N-(3-(1-(difluoromethyl)-1H-pyrazol-4-yl)-1H-indazol-5-yl)-3,4-dimethylpicolinamide], the 50% inhibitory concentration (IC50) in assay [1] and in assay [2] was < 100 nM throughout.
Take `Cc1cc(C#N)cnc1C(=O)Nc1ccc2[nH]nc(-c3cnn(C4CCOCC4)c3)c2c1` [Example 33, 5-cyano-3-methyl-N-(3-(1-(tetrahydro-2H-pyran-4-yl)-1H-pyrazol-4-yl)-1H-indazol-5-yl)picolinamide]: the 50% inhibitory concentration (IC50) in assay [1] and in assay [2] was < 100 nM in each case.

In general, IC50 refers to the point on the concentration scale where inhibition reaches its midpoint.
